Results reported in US8080522B2, “Polyethlene glycol modifications of thymosin alpha-1” (Institute of Pharmacology and Toxicology Academy of …, priority 2005, dated 2011).
Where no end group is shown, it is not given here.

Columns and labels:
[1] = Half-life in liver homogenate (HPLC); type: in vitro ADME; conditions: 37° C., sample 0.4 mg/mL or 0.8 mg/mL
Description: Experimental method: Prepare 0.4 mg/mL or 0.8 mg/mL sample aqueous solution in centrifuge tube, adding 50 μL liver homogenate. Then incubate for different time in 37° C. water bath. Terminate the reaction and precipitate liver homogenate protein by heating the mixture in boiling water for 5 minutes. Centrifuge it (10000 rpm) for 10 minutes. Analyze the supernatant by HPLC. The data was statistically analyzed by Origin Prof. 5.0.
HPLC: Column temperature: 25° C.; Flow rate 1.0 mL/min; Detection wavelength: 200 nm; Mobile phase A: 0.1% TFA/H2O; Mobile phase B: 0.1% TFA/70% CH3CN.

[2] = Plasma concentration / pharmacokinetics in mouse (competitive ELISA); type: in vivo; conditions: 300 μg per mouse, injected peritoneally, parameters in 24 h, n = 3
Description: Coating antigen: Dilute Tα1 detection antigen stock solution to a final concentration of 2 μg/mL with coating solution, and add it into the wells of ELISA plate for 0.1 mL per well, and incubate at 4° C. for 5 days. Then wash the ELISA plate 3 times with washing buffer, each 0.2 mL/well and 3 min/time. Add 0.2 mL blocking buffer to each well, incubate for 1.5 hours at 37° C., wash plate 2 times by washing buffer, and spin dried.
Sample preparation: Weight sample accurately, dissolve it in saline to a concentration of 1.5 mg/mL. Administrate 0.2 Ml by injection to each mouse peritoneally. Collect blood sample in 3 min, 20 min, 40 min, 1 h, 2 h, 3 h, 6 h, 8 h, 12 h, and 24 h. Collect serum by centrifuge the blood samples for 5 minutes at 10000 rpm, stored at −20° C. in a freezer. o prepare test sample, […] was added by 0.1 mL 1:1500 rabbit anti-Tα1 serum (final concentration is 1:6000), and 0.2 mL CD-1® mouse serum, and […]. Prepare blank control at the same time. Total volume is 0.4 mL. Incubate for 2 hours at 37° C. To prepare standard sample, Tα1 0.1 mL with different concentrations from 0.0004 to 400 μg/mL was added by 0.1 mL 1:1500 rabbit anti-Tα1 serum (final concentration is 1:6000), and 0.2 mL CD-1® mouse serum. Prepare blank control at the same time. Total volume is 0.4 mL. Incubate for 2 hours at 37° C.
Sample Testing Add the prepared test sample and standard sample to ELISA plate, 0.1 mL/well, reacting for 1 hour in 37° C. chamber. Wash the plates 3 times, spin dryed. Add substrate 0.1 mL/well for 10 minutes. Add 2 mol/L H2SO4 0.05 mL to each well to terminate the reaction. Measure the OD value at 450 nm. Plot the standard curve with the concentration of Tα1 standard sample as abscissa and OD value as vertical coordinate. Calculate the content of test sample according to this standard curve.

[3] = tested on: T lymphocyte (spleen cell); assay: T lymphocyte proliferation stimulated by Con A (3H-TdR incorporation); type: cell-based, mouse; conditions: for 3H-TdR incorporation (cpm, x ± SD): Con A 0.5 μg/mL, 72 hours, n = 4; for Enhancement percentage: versus Con A alone
Description: Sacrifice mouse by draining artery blood, remove spleen in sterile condition, and make it to spleen cell suspension. After red blood cell lysis, wash for 3 times, and stain with Trypan Blue to count the living cells. The amount of living cells should be more than 95%. Dilute the cell concentration to 5×10^6 cell/mL by adding RPMI-1640 culture with 10% bovine serum. Add spleen cell suspension to a sterilized 96-well plate for 100 μL per well. The total amount is 200 μL per well (including 50 μL Con A and 50 μL medicament). Each sample concentration is repeated fro 3-4 wells. Incubate the plate in a 5% CO2 chamber for 72 hours, add 10 μci/mL ^3H-TdR 20 μL per well 16 hours before termination of the incubation, giving rise to a final concentration of 1.0 μci (37.0 KBq)/mL. Collect cells on filter membrane by using Herveste 96 cell harvester, dried in 80° C. oven for 20 minutes or dried in air. Put the dried filter membrane into 1450-423 microBeta sample bag, add scintillation liquid, and measure radioactivity (cpm) in Perkin Elmer MicroBeta Trilux 1450 Scintillation Counter.

[4] = tested on: spleen cell; assay: Interferon-γ production of spleen cells stimulated by Con A (double antibody sandwich ELISA); type: cell-based; conditions: for Concentration of IFN-γ: Con A 0.5 μg/mL, 24 hours, n = 3; for Enhancement percentage: versus Con A alone
Description: Prepare spleen cell suspension in sterile condition. Adjust cell concentration to 5×10^6 cell/mL by adding RPMI-1640 culture with 20% bovine serum. Add 0.5 mL cell suspension, 0.25 mL Con A (final concentration is 0.5 μg/mL) and 0.25 mL samples with different concentrations in 24-well plate; and add RPMI-1640 culture in control wells. Incubate the plates in a 5% CO2 chamber at 37° C. for 24 hours. Centrifuge and collect supernatant, test the content of IFN-γ in supernatant by double antibody sandwich ELISA. The protocol is according to the instruction on ELISA kit.

With “Ac-[Cys^5(mPEG5000-MAL)]Tα1 (Ac-SDAAC(mPEG5000‑maleimide)DTSSEITTKDLKEKKEVVEEAEN; UniProt P06454 2-29, looked up, variant V5C) [BMJB005]” the “t1/2 in liver homogenate” value [1] was 250.0 h.
With “Ac-[Cys^8(mPEG5000-MAL)]Tα1 (Ac-SDAAVDTC(mPEG5000‑maleimide)SEITTKDLKEKKEVVEEAEN; UniProt P06454 2-29, looked up, variant S8C) [BMJB008]” the “t1/2 in liver homogenate” value [1] was 65.2 h.
“Ac-[Cys^16(mPEG5000-MAL)]Tα1 (Ac-SDAAVDTSSEITTKDC(mPEG5000‑maleimide)KEKKEVVEEAEN; UniProt P06454 2-29, looked up, variant L16C) [BMJB016]” gave an AUC [2] of 120000 ng·h/mL, a Cmax [2] of 6289 ng/mL and a Tmax [2] of 6.000 h. For the same substance, the “3H-TdR incorporation (cpm, x ± SD)” value ([3]; Table 2-1, sample 10 μg/mL) was 21697 ± 3489 cpm, the Enhancement percentage ([3]; Table 2-1, sample 10 μg/mL) was “+60.9%” and the “3H-TdR incorporation (cpm, x ± SD)” value ([3]; Table 2-1, sample 50 μg/mL) was 22584 ± 1463 cpm. The Enhancement percentage ([3]; Table 2-1, sample 50 μg/mL) was “+67.4%”, the “3H-TdR incorporation (cpm, x ± SD)” value ([3]; Table 2-1, sample 100 μg/mL) was 20708 ± 1211 cpm and the Enhancement percentage ([3]; Table 2-1, sample 100 μg/mL) was “+53.5%”. For the same substance, the “Concentration of IFN-γ” value ([4]; Table 1-1, sample 1 μg/mL) was 1426.8 ± 36.8 pg/mL, the “Enhancement percentage” value ([4]; Table 1-1, sample 1 μg/mL) was “+89.8%” and the “Concentration of IFN-γ” value ([4]; Table 1-1, sample 10 μg/mL) was 1295.7 ± 165.9 pg/mL. The “Enhancement percentage” value ([4]; Table 1-1, sample 10 μg/mL) was “+72.4%”, the “Concentration of IFN-γ” value ([4]; Table 1-1, sample 100 μg/mL) was 455.5 ± 79.3**↓ pg/mL and the “Enhancement percentage” value ([4]; Table 1-1, sample 100 μg/mL) was −39.4%.
With “Ac-[Cys^17(mPEG5000-MAL)]Tα1 (Ac-SDAAVDTSSEITTKDLC(mPEG5000‑maleimide)EKKEVVEEAEN; UniProt P06454 2-29, looked up, variant K17C) [BMJB017]” the AUC [2] was 83500 ng·h/mL, the Cmax [2] was 11980 ng/mL and the Tmax [2] was 1.000 h. For the same substance, the “3H-TdR incorporation (cpm, x ± SD)” value ([3]; Table 2-1, sample 10 μg/mL) was 18919 ± 3507 cpm, the Enhancement percentage ([3]; Table 2-1, sample 10 μg/mL) was “+40.3%” and the “3H-TdR incorporation (cpm, x ± SD)” value ([3]; Table 2-1, sample 50 μg/mL) was 21091 ± 3916 cpm. The Enhancement percentage ([3]; Table 2-1, sample 50 μg/mL) was “+56.4%”, the “3H-TdR incorporation (cpm, x ± SD)” value ([3]; Table 2-1, sample 100 μg/mL) was 16778 ± 2483 cpm and the Enhancement percentage ([3]; Table 2-1, sample 100 μg/mL) was “+24.4%”. The “Concentration of IFN-γ” value ([4]; Table 1-1, sample 1 μg/mL) was 1048.9 ± 181.4 pg/mL, the “Enhancement percentage” value ([4]; Table 1-1, sample 1 μg/mL) was “+39.5%” and the “Concentration of IFN-γ” value ([4]; Table 1-1, sample 10 μg/mL) was 856.4 ± 61.8 pg/mL. For the same substance, the “Enhancement percentage” value ([4]; Table 1-1, sample 10 μg/mL) was “+13.9%”, the “Concentration of IFN-γ” value ([4]; Table 1-1, sample 100 μg/mL) was 474.7 ± 10.2**↓ pg/mL and the “Enhancement percentage” value ([4]; Table 1-1, sample 100 μg/mL) was −36.9%.
For “BMJB012: PEG modification of Tα1, listed after BMJBT001 in Tables 1-2 and 2-2 (SDAAVDTSSEITTKDLKEKKEVVEEAEN; not fully specified; ends and bridges not checked; also: PEG conjugate, site not given here; UniProt P06454 2-29, looked up)”, the AUC [2] was 8150 ng·h/mL, the Cmax [2] was 348 ng/mL and the Tmax [2] was 12.000 h. For the same substance, the “3H-TdR incorporation (cpm, x ± SD)” value ([3]; Table 2-2, sample 10 μg/mL) was 22772 ± 3222 cpm, the Enhancement percentage ([3]; Table 2-2, sample 10 μg/mL) was “+95.6%” and the “3H-TdR incorporation (cpm, x ± SD)” value ([3]; Table 2-2, sample 50 μg/mL) was 24066 ± 4004 cpm. The Enhancement percentage ([3]; Table 2-2, sample 50 μg/mL) was “+106.7%”, the “3H-TdR incorporation (cpm, x ± SD)” value ([3]; Table 2-2, sample 100 μg/mL) was 25176 ± 3656 cpm and the Enhancement percentage ([3]; Table 2-2, sample 100 μg/mL) was “+116.3%”. For the same substance, the “Concentration of IFN-γ” value ([4]; Table 1-2, sample 1 μg/mL) was 4224.7 ± 183.1 pg/mL, the “Enhancement percentage” value ([4]; Table 1-2, sample 1 μg/mL) was “+29.7%” and the “Concentration of IFN-γ” value ([4]; Table 1-2, sample 10 μg/mL) was 3115.3 ± 377.1 pg/mL. For the same substance, the “Enhancement percentage” value ([4]; Table 1-2, sample 10 μg/mL) was −4.4%, the “Concentration of IFN-γ” value ([4]; Table 1-2, sample 100 μg/mL) was 3277.7 ± 181.0 pg/mL and the “Enhancement percentage” value ([4]; Table 1-2, sample 100 μg/mL) was “+0.6%”.
“BMJB015: PEG modification of Tα1, listed after BMJBT004 in Table 1-2 (SDAAVDTSSEITTKDLKEKKEVVEEAEN; ends and bridges not checked; also: PEG conjugate, site not given here; UniProt P06454 2-29, looked up)” showed an AUC [2] of 106000 ng·h/mL, a Cmax [2] of 5082 ng/mL and a Tmax [2] of 3.000 h. For the same substance, the “Concentration of IFN-γ” value ([4]; Table 1-2, sample 1 μg/mL) was 3908.2 ± 147.2 pg/mL, the “Enhancement percentage” value ([4]; Table 1-2, sample 1 μg/mL) was “+20.0%” and the “Concentration of IFN-γ” value ([4]; Table 1-2, sample 10 μg/mL) was 3962.9 ± 137.6 pg/mL. For the same substance, the “Enhancement percentage” value ([4]; Table 1-2, sample 10 μg/mL) was “+21.6%”, the “Concentration of IFN-γ” value ([4]; Table 1-2, sample 100 μg/mL) was 3526.2 ± 68.0 pg/mL and the “Enhancement percentage” value ([4]; Table 1-2, sample 100 μg/mL) was “+8.2%”.
“BMJB020: PEG modification of Tα1 (SDAAVDTSSEITTKDLKEKKEVVEEAEN; ends and bridges not checked; also: PEG conjugate, site not given here; UniProt P06454 2-29, looked up)” showed an AUC [2] of 4080 ng·h/mL, a Cmax [2] of 172 ng/mL and a Tmax [2] of 12.000 h. For the same substance, the “Concentration of IFN-γ” value ([4]; Table 1-3, sample 1 μg/mL) was 3998.3 ± 157.7 pg/mL, the Enhancement percentage ([4]; Table 1-3, sample 1 μg/mL) was “+30.9%” and the “Concentration of IFN-γ” value ([4]; Table 1-3, sample 10 μg/mL) was 2654.0 ± 211.1 pg/mL. The Enhancement percentage ([4]; Table 1-3, sample 10 μg/mL) was −13.1%, the “Concentration of IFN-γ” value ([4]; Table 1-3, sample 100 μg/mL) was 3135.8 ± 195.4 pg/mL and the Enhancement percentage ([4]; Table 1-3, sample 100 μg/mL) was “+2.7%”.
